# Test results: ChEMBL document CHEMBL4190286, “Modulating the Serotonin Receptor Spectrum of Pulicatin Natural Products” (J Nat Prod, 2017)
# Biological target: 5-hydroxytryptamine receptor 2B (Homo sapiens, UniProt P41595)
# Assay: Displacement of [3H]-LSD from human 5-HT2B receptor expressed in HEK cells after 90 mins by microbeta scintillation counting analysis
# Format: cell-based
# Chain of 5-hydroxytryptamine receptor 2B (P41595 whole entry): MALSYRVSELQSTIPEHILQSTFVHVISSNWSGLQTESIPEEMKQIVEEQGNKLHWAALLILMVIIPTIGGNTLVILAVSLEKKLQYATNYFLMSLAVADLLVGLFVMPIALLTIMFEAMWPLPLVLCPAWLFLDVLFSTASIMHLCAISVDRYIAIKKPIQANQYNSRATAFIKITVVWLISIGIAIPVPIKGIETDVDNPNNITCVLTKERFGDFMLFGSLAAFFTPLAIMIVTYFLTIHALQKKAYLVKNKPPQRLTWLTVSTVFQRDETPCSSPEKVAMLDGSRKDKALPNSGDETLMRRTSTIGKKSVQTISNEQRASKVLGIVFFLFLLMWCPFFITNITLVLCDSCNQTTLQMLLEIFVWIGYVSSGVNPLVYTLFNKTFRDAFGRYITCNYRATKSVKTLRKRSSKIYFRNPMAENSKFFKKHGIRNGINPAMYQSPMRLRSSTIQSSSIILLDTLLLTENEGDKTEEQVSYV
row,SMILES,Ki
1,C[C@@H]1SC(c2cc3ccccc3cc2O)=N[C@H]1CO (relative stereo),0.81 µM
2,CCCCCCCCOc1ccc(C2=N[C@@H](CO)[C@H](C)S2)cc1 (relative stereo),> 10 µM
3,C[C@@H]1SC(c2cccs2)=N[C@H]1CO (relative stereo),1.4 µM
4,C[C@@H]1SC(c2ccc(-c3ccccc3)cc2)=N[C@H]1Cc1c[nH]cn1 (relative stereo),1.1 µM
5,Oc1ccccc1C1=NC(Cc2c[nH]cn2)CS1 (racemic),0.1 µM
6,C[C@@H]1SC(c2ccco2)=N[C@H]1CO (relative stereo),> 10 µM

# Biological target: 5-hydroxytryptamine receptor 1B (Homo sapiens, UniProt P28222)
# Sequence (P28222 whole entry): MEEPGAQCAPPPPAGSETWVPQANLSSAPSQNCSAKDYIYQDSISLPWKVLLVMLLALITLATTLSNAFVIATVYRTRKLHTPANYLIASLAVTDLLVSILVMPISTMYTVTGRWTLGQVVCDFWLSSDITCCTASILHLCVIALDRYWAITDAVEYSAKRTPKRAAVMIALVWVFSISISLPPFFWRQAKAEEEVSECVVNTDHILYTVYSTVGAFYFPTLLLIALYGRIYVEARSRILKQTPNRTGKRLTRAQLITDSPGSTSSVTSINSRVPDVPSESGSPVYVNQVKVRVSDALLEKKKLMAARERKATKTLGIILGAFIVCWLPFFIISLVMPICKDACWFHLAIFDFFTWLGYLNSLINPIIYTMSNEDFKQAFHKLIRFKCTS
# Assay: Displacement of [3H]5-CT from human 5-HT1B receptor expressed in HEK cells after 90 mins by microbeta scintillation counting analysis
# Format: cell-based
row,SMILES,Ki
1,C[C@@H]1SC(c2cc3ccccc3cc2O)=N[C@H]1CO (relative stereo),> 10 µM
2,CCCCCCCCOc1ccc(C2=N[C@@H](CO)[C@H](C)S2)cc1 (relative stereo),> 10 µM
3,C[C@@H]1SC(c2cccs2)=N[C@H]1CO (relative stereo),> 10 µM
4,Oc1ccccc1C1=NC(Cc2c[nH]cn2)CS1 (racemic),> 10 µM
5,C[C@@H]1SC(c2ccco2)=N[C@H]1CO (relative stereo),> 10 µM

# Biological target: 5-hydroxytryptamine receptor 1D (Homo sapiens, UniProt P28221)
# Sequence (P28221 whole entry): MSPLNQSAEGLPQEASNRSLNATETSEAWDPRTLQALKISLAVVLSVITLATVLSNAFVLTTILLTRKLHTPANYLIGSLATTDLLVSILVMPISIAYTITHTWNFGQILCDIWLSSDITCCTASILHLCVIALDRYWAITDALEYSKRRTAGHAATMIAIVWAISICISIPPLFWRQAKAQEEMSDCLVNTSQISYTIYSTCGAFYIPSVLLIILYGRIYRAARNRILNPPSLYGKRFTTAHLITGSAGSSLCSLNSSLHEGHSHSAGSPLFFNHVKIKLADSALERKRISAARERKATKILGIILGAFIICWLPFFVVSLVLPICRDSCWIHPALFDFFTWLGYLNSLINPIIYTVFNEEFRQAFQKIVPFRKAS
# Assay: Displacement of [3H]5-CT from human 5-HT1D receptor expressed in HEKT cells after 90 mins by microbeta scintillation counting analysis
# Format: cell-based
row,SMILES,Ki
1,C[C@@H]1SC(c2cc3ccccc3cc2O)=N[C@H]1CO (relative stereo),> 10 µM
2,CCCCCCCCOc1ccc(C2=N[C@@H](CO)[C@H](C)S2)cc1 (relative stereo),> 10 µM
3,C[C@@H]1SC(c2cccs2)=N[C@H]1CO (relative stereo),> 10 µM
4,Oc1ccccc1C1=NC(Cc2c[nH]cn2)CS1 (racemic),1.9 µM
5,C[C@@H]1SC(c2ccco2)=N[C@H]1CO (relative stereo),> 10 µM

# Biological target: 5-hydroxytryptamine receptor 1E (Homo sapiens, UniProt P28566)
# Sequence (P28566 whole entry): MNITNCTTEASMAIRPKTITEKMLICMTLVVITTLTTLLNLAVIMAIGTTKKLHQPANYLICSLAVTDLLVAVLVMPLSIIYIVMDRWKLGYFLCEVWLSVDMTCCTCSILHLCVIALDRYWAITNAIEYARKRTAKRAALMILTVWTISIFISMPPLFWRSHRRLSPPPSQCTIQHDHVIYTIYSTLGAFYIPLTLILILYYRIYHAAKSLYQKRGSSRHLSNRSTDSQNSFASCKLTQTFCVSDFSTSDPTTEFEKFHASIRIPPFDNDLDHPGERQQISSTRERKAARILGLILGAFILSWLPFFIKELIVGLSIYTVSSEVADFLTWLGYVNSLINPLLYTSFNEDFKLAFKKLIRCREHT
# Assay: Displacement of [3H]5-HT from human 5-HT1E receptor expressed in HEK cells after 90 mins by microbeta scintillation counting analysis
# Format: cell-based
row,SMILES,Ki
1,C[C@@H]1SC(c2cc3ccccc3cc2O)=N[C@H]1CO (relative stereo),> 10 µM
2,CCCCCCCCOc1ccc(C2=N[C@@H](CO)[C@H](C)S2)cc1 (relative stereo),> 10 µM
3,C[C@@H]1SC(c2cccs2)=N[C@H]1CO (relative stereo),> 10 µM
4,Oc1ccccc1C1=NC(Cc2c[nH]cn2)CS1 (racemic),> 10 µM
5,C[C@@H]1SC(c2ccco2)=N[C@H]1CO (relative stereo),> 10 µM

# Biological target: 5-hydroxytryptamine receptor 2A (Homo sapiens, UniProt P28223)
# Sequence (P28223 whole entry): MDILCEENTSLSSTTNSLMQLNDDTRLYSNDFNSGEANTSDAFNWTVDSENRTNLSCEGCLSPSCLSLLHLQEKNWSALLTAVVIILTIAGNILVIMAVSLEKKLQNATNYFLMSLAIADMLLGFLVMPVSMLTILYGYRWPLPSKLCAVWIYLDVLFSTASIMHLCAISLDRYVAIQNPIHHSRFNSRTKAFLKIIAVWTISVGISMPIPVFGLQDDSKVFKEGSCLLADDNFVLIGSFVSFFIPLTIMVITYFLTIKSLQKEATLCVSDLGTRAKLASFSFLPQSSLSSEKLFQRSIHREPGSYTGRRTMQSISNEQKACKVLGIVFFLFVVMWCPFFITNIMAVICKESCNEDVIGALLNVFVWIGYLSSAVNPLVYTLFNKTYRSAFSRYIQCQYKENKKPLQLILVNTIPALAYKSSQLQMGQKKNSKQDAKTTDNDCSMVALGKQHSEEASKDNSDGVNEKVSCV
# Assay: Displacement of [3H]Ketanserin from 5-HT2A (unknown origin) receptor after 90 mins by microbeta scintillation counting analysis
row,SMILES,Ki
1,C[C@@H]1SC(c2cc3ccccc3cc2O)=N[C@H]1CO (relative stereo),> 10 µM
2,CCCCCCCCOc1ccc(C2=N[C@@H](CO)[C@H](C)S2)cc1 (relative stereo),6.9 µM
3,C[C@@H]1SC(c2cccs2)=N[C@H]1CO (relative stereo),> 10 µM
4,C[C@@H]1SC(c2ccc(-c3ccccc3)cc2)=N[C@H]1Cc1c[nH]cn1 (relative stereo),0.24 µM
5,Oc1ccccc1C1=NC(Cc2c[nH]cn2)CS1 (racemic),> 10 µM
6,C[C@@H]1SC(c2ccco2)=N[C@H]1CO (relative stereo),> 10 µM

# Biological target: T1, 5-hydroxytryptamine receptor 2C (Homo sapiens, UniProt P28335)
# T1 sequence (P28335 whole entry): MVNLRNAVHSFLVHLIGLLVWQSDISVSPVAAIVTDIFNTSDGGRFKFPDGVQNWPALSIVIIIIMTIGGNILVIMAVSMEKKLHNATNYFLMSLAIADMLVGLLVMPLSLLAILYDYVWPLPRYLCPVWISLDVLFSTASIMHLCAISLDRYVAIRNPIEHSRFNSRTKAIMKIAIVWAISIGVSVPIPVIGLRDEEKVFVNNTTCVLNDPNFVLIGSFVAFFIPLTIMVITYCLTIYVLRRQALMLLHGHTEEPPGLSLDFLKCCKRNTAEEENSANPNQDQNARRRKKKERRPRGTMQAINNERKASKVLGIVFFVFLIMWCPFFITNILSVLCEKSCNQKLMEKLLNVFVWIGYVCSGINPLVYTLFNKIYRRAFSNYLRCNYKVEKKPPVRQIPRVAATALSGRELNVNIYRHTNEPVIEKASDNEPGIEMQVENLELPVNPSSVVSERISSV
# Assay: Displacement of [3H]-Mesulergine from human 5-HT2C receptor expressed in HEKT cells after 90 mins by microbeta scintillation counting analysis
# Format: cell-based
row,SMILES,Ki
1,C[C@@H]1SC(c2cc3ccccc3cc2O)=N[C@H]1CO (relative stereo),2.4 µM
2,CCCCCCCCOc1ccc(C2=N[C@@H](CO)[C@H](C)S2)cc1 (relative stereo),3.6 µM
3,C[C@@H]1SC(c2cccs2)=N[C@H]1CO (relative stereo),2.2 µM
4,C[C@@H]1SC(c2ccc(-c3ccccc3)cc2)=N[C@H]1Cc1c[nH]cn1 (relative stereo),1.4 µM
5,Oc1ccccc1C1=NC(Cc2c[nH]cn2)CS1 (racemic),> 10 µM
6,C[C@@H]1SC(c2ccco2)=N[C@H]1CO (relative stereo),> 10 µM

# Biological target: T2, 5-hydroxytryptamine receptor 3A (Homo sapiens, UniProt P46098)
# T2 sequence (P46098 whole entry): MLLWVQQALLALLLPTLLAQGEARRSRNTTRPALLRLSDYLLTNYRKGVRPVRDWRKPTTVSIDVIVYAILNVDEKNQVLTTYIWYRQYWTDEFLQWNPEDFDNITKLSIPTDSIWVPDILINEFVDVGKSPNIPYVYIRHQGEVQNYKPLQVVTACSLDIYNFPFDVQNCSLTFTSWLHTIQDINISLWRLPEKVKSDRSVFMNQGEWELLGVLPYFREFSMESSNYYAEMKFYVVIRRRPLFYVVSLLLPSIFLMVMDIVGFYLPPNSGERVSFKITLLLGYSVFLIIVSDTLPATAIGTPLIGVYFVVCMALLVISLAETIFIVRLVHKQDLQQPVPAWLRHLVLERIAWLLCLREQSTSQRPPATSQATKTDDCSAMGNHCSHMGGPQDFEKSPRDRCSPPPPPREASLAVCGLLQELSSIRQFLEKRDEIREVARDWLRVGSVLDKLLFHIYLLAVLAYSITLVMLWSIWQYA
# Assay: Displacement of [3H]-GR65630 from human 5-HT3 receptor expressed in HEKT cells after 90 mins by microbeta scintillation counting analysis
# Format: cell-based
row,SMILES,Ki
1,C[C@@H]1SC(c2cc3ccccc3cc2O)=N[C@H]1CO (relative stereo),1.8 µM
2,CCCCCCCCOc1ccc(C2=N[C@@H](CO)[C@H](C)S2)cc1 (relative stereo),> 10 µM
3,C[C@@H]1SC(c2cccs2)=N[C@H]1CO (relative stereo),> 10 µM
4,Oc1ccccc1C1=NC(Cc2c[nH]cn2)CS1 (racemic),0.95 µM
5,C[C@@H]1SC(c2ccco2)=N[C@H]1CO (relative stereo),> 10 µM

# Biological target: 5-hydroxytryptamine receptor 5A (Homo sapiens, UniProt P47898)
# Sequence (P47898 whole entry): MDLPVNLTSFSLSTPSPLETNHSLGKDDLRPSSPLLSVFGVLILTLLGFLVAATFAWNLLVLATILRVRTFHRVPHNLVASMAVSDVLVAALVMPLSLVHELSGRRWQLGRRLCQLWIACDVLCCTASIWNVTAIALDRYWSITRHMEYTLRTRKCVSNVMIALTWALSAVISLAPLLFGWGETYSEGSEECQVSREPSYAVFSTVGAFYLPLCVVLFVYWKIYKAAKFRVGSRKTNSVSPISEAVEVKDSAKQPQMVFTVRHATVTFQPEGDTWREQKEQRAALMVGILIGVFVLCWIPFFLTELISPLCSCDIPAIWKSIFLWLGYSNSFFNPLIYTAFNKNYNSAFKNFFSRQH
# Assay: Displacement of [3H]-LSD from human 5-HT5A receptor expressed in Flp-In CHO cells after 90 mins by microbeta scintillation counting analysis
# Format: cell-based
row,SMILES,Ki
1,C[C@@H]1SC(c2cc3ccccc3cc2O)=N[C@H]1CO (relative stereo),> 10 µM
2,CCCCCCCCOc1ccc(C2=N[C@@H](CO)[C@H](C)S2)cc1 (relative stereo),> 10 µM
3,C[C@@H]1SC(c2cccs2)=N[C@H]1CO (relative stereo),> 10 µM
4,Oc1ccccc1C1=NC(Cc2c[nH]cn2)CS1 (racemic),> 10 µM
5,C[C@@H]1SC(c2ccco2)=N[C@H]1CO (relative stereo),> 10 µM

# Biological target: 5-hydroxytryptamine receptor 6 (Homo sapiens, UniProt P50406)
# Sequence (P50406 whole entry): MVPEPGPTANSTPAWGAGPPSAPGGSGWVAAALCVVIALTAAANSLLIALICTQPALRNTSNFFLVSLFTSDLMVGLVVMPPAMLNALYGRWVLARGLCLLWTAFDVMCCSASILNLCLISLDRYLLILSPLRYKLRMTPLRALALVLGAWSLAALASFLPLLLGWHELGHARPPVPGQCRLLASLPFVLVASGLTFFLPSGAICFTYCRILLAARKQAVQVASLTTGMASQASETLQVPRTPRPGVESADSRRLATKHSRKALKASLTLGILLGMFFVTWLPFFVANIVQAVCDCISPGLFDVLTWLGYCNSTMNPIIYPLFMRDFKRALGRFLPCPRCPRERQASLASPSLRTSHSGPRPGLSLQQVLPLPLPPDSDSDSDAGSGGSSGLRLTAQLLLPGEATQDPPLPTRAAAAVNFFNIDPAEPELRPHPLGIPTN
# Assay: Displacement of [3H]-LSD from human 5-HT6 receptor expressed in HEK cells after 90 mins by microbeta scintillation counting analysis
# Format: cell-based
row,SMILES,Ki
1,C[C@@H]1SC(c2cc3ccccc3cc2O)=N[C@H]1CO (relative stereo),> 10 µM
2,CCCCCCCCOc1ccc(C2=N[C@@H](CO)[C@H](C)S2)cc1 (relative stereo),> 10 µM
3,C[C@@H]1SC(c2cccs2)=N[C@H]1CO (relative stereo),> 10 µM
4,Oc1ccccc1C1=NC(Cc2c[nH]cn2)CS1 (racemic),> 10 µM
5,C[C@@H]1SC(c2ccco2)=N[C@H]1CO (relative stereo),> 10 µM

# Biological target: 5-hydroxytryptamine receptor 7 (Homo sapiens, UniProt P34969)
# Sequence (P34969 whole entry): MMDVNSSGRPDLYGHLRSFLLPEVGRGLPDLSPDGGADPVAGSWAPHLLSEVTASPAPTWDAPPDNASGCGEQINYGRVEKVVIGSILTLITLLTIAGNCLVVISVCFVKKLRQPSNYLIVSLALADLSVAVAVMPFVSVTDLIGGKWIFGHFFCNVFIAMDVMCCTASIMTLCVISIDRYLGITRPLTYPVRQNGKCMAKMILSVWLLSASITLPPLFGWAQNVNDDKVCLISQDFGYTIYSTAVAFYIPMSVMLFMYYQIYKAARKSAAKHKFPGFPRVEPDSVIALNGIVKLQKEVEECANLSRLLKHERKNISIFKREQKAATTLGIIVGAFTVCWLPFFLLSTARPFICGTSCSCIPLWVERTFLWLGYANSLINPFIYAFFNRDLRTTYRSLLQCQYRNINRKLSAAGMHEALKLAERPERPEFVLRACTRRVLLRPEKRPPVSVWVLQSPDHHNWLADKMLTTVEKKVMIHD
# Assay: Displacement of [3H]-LSD from human 5-HT7A receptor expressed in HEK cells after 90 mins by microbeta scintillation counting analysis
# Format: cell-based
row,SMILES,Ki
1,C[C@@H]1SC(c2cc3ccccc3cc2O)=N[C@H]1CO (relative stereo),> 10 µM
2,CCCCCCCCOc1ccc(C2=N[C@@H](CO)[C@H](C)S2)cc1 (relative stereo),> 10 µM
3,C[C@@H]1SC(c2cccs2)=N[C@H]1CO (relative stereo),> 10 µM
4,Oc1ccccc1C1=NC(Cc2c[nH]cn2)CS1 (racemic),7.4 µM
5,C[C@@H]1SC(c2ccco2)=N[C@H]1CO (relative stereo),> 10 µM

# Biological target: T3, 5-hydroxytryptamine receptor 1A (Homo sapiens, UniProt P08908)
# T3 sequence (P08908 whole entry): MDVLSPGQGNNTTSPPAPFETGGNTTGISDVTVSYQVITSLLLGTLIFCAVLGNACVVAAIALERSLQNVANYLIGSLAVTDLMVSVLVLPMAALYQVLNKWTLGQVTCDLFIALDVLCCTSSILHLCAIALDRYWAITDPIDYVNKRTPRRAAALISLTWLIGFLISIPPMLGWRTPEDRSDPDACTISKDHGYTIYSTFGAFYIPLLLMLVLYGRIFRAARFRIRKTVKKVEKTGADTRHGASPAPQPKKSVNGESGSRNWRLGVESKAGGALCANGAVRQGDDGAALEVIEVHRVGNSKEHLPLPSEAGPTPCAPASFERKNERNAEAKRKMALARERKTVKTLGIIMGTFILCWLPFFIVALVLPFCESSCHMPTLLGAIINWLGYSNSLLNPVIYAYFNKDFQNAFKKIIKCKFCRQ
# Assay: Antagonist activity at 5-HT1A receptor (unknown origin) by Tango assay
# Format: functional
row,SMILES,IC50
1,CCCCCCCCOc1ccc(C2=N[C@@H](CO)[C@H](C)S2)cc1 (relative stereo),> 10 µM
